In patent publication US11180474B2 (BRISTOL-MYERS SQUIBB COMPANY, priority 2016, dated 2021) one finds IC50 data, which are given here for 23 compounds.

Where only a bound is given, the exact number is not on record here.

The target in this test is T1, human TLR9 (Homo sapiens, UniProt Q9NR96).
T1 construct: host or cells: HEK-Blue cells
T1 sequence (Q9NR96 26-1032): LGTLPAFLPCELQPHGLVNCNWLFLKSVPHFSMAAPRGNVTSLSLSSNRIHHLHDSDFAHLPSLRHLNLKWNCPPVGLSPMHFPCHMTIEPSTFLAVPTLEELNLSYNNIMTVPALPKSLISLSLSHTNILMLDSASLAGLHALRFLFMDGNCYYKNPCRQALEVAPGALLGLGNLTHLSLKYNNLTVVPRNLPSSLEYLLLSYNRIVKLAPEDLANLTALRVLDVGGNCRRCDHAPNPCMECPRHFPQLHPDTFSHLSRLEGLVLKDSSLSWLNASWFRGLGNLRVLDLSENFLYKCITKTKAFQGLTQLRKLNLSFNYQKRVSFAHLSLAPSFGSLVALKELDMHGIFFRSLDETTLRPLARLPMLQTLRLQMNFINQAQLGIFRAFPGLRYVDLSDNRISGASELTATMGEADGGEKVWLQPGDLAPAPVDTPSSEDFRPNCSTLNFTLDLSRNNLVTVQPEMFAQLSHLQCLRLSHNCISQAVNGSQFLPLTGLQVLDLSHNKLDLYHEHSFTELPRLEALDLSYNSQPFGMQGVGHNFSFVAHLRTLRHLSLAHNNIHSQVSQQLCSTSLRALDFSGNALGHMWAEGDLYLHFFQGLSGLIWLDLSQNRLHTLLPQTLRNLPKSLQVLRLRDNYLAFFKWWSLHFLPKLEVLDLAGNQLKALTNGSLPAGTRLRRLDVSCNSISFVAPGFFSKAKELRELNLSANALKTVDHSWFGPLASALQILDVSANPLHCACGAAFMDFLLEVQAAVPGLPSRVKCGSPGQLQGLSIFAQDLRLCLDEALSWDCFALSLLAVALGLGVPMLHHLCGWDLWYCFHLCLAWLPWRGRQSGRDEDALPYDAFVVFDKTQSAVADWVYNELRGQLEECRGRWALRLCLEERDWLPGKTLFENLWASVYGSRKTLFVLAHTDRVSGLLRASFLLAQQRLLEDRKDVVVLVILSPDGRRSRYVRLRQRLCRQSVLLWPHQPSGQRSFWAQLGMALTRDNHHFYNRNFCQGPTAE
Put plainly: TLR9 inhibition reporter assay (HEK-Blue cells, SEAP reporter, ODN2006 stimulation). It is filed as cell-based. As to conditions: HEK-Blue cells overexpressing human TLR9, ODN2006 5 nM. The procedure, abridged:
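Human TLR7/8/9 HEK-Blue reporter lines; dose range 0.05 nM–50 μM; 30 min RT preincubation; stimulus gardiquimod 7.5 μM / R848 15.9 μM / ODN2006 5 nM respectively; 22 h, 37 °C; SEAP detected colorimetrically.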
Regarding `COc1ccc(-c2[nH]c3ccc(C4CCN(CC(=O)N5CCN(c6ncccn6)CC5)CC4)cc3c2CC(F)(F)F)cc1OC` [Example 368, 2-(4-(2-(3,4-dimethoxyphenyl)-3-(2,2,2-trifluoroethyl)-1H-indol-5-yl)piperidin-1-yl)-1-(4-(pyrimidin-2-yl)piperazin-1-yl)ethan-1-one], the IC50 (as a rule, the midpoint of a concentration-inhibition curve) was determined as 1330 nM.

`COc1ccc(-c2[nH]c3ccc(C4CCN(CC(=O)N5CCC(C(N)=O)CC5)CC4)cc3c2CC(F)(F)F)cc1OC` [Example 369, 1-(2-(4-(2-(3,4-dimethoxyphenyl)-3-(2,2,2-trifluoroethyl)-1H-indol-5-yl)piperidin-1-yl)acetyl)piperidine-4-carboxamide] returned a 50% inhibitory concentration (IC50) of 1950 nM. With `COc1ccc(-c2[nH]c3ccc(C4CCN(CC(=O)N(C)C5CCN(C)C5)CC4)cc3c2CC(F)(F)F)cc1OC` (centres unmarked) [Example 370, 2-(4-(2-(3,4-dimethoxyphenyl)-3-(2,2,2-trifluoroethyl)-1H-indol-5-yl)piperidin-1-yl)-N-methyl-N-(1-methylpyrrolidin-3-yl)acetamide], the half-maximal inhibitory concentration (IC50) came to 399 nM. Then `COc1ccc(-c2[nH]c3ccc(C4CCN(CC(=O)N5CCC[C@@H]5CO)CC4)cc3c2CC(F)(F)F)cc1OC` [Example 371, (R)-2-(4-(2-(3,4-dimethoxyphenyl)-3-(2,2,2-trifluoroethyl)-1H-indol-5-yl)piperidin-1-yl)-1-(2-(hydroxymethyl)pyrrolidin-1-yl)ethan-1-one], with 2460 nM; and `CCN(CCN(C)C)C(=O)CN1CCC(c2ccc3[nH]c(-c4ccc(OC)c(OC)c4)c(CC(F)(F)F)c3c2)CC1` [Example 372, 2-(4-(2-(3,4-dimethoxyphenyl)-3-(2,2,2-trifluoroethyl)-1H-indol-5-yl)piperidin-1-yl)-N-(2-(dimethylamino)ethyl)-N-ethylacetamide], with 335 nM. In turn, `COc1ccc(-c2[nH]c3ccc(C4CCN(CC(=O)N5CC[C@@H](N(C)C)C5)CC4)cc3c2CC(F)(F)F)cc1OC` [Example 373, (R)-2-(4-(2-(3,4-dimethoxyphenyl)-3-(2,2,2-trifluoroethyl)-1H-indol-5-yl)piperidin-1-yl)-1-(3-(dimethylamino)pyrrolidin-1-yl)ethan-1-one] yielded an IC50 of 370 nM. With `COc1ccc(-c2[nH]c3ccc(C4CCN(CC(=O)N5CC[C@H](N(C)C)C5)CC4)cc3c2CC(F)(F)F)cc1OC` [Example 374, (S)-2-(4-(2-(3,4-dimethoxyphenyl)-3-(2,2,2-trifluoroethyl)-1H-indol-5-yl)piperidin-1-yl)-1-(3-(dimethylamino)pyrrolidin-1-yl) ethan-1-one], the half-inhibitory concentration (IC50) turned out to be 252 nM. Then `COc1ccc(-c2[nH]c3ccc(C4CCN(CC(=O)NCCN5CCCC5)CC4)cc3c2CC(F)(F)F)cc1OC` [Example 375, 2-(4-(2-(3,4-dimethoxyphenyl)-3-(2,2,2-trifluoroethyl)-1H-indol-5-yl)piperidin-1-yl)-N-(2-(pyrrolidin-1-yl)ethyl)acetamide], with 701 nM; and `COc1ccc(-c2[nH]c3ccc(C4CCN(CC(=O)NCCCN5CCCC5=O)CC4)cc3c2CC(F)(F)F)cc1OC` [Example 376, 2-(4-(2-(3,4-dimethoxyphenyl)-3-(2,2,2-trifluoroethyl)-1H-indol-5-yl)piperidin-1-yl)-N-(3-(2-oxopyrrolidin-1-yl)propyl)acetamide], with 2900 nM; and `CCC(C)NC(=O)CN1CCC(c2ccc3[nH]c(-c4ccc(OC)c(OC)c4)c(CC(F)(F)F)c3c2)CC1` (centres unmarked) [Example 377, N-(sec-butyl)-2-(4-(2-(3,4-dimethoxyphenyl)-3-(2,2,2-trifluoroethyl)-1H-indol-5-yl)piperidin-1-yl)acetamide], with 8650 nM. The result for `CCC(CC)NC(=O)CN1CCC(c2ccc3[nH]c(-c4ccc(OC)c(OC)c4)c(CC(F)(F)F)c3c2)CC1` [Example 378, 2-(4-(2-(3,4-dimethoxyphenyl)-3-(2,2,2-trifluoroethyl)-1H-indol-5-yl)piperidin-1-yl)-N-(pentan-3-yl)acetamide] reads 14400 nM; that for `COc1ccc(-c2[nH]c3ccc(C4CCN(CC(=O)NCCNC(C)=O)CC4)cc3c2CC(F)(F)F)cc1OC` [Example 379, N-(2-acetamidoethyl)-2-(4-(2-(3,4-dimethoxyphenyl)-3-(2,2,2-trifluoroethyl)-1H-indol-5-yl)piperidin-1-yl)acetamide], 4230 nM; that for `COc1ccc(-c2[nH]c3ccc(C4CCN(CC(=O)NCCN(C)C)CC4)cc3c2CC(F)(F)F)cc1OC` [Example 380, 2-(4-(2-(3,4-dimethoxyphenyl)-3-(2,2,2-trifluoroethyl)-1H-indol-5-yl)piperidin-1-yl)-N-(2-(dimethylamino)ethyl)acetamide], 745 nM. The result for `COc1ccc(-c2[nH]c3ccc(C4CCN(CC(=O)NCC#N)CC4)cc3c2CC(F)(F)F)cc1OC` [Example 381, N-(cyanomethyl)-2-(4-(2-(3,4-dimethoxyphenyl)-3-(2,2,2-trifluoroethyl)-1H-indol-5-yl)piperidin-1-yl)acetamide] reads 5910 nM.

Compound `COc1ccc(-c2[nH]c3ccc(C4CCN(CC(=O)NCCCN(C)C)CC4)cc3c2CC(F)(F)F)cc1OC` [Example 382, 2-(4-(2-(3,4-dimethoxyphenyl)-3-(2,2,2-trifluoroethyl)-1H-indol-5-yl)piperidin-1-yl)-N-(3-(dimethylamino)propyl)acetamide] yielded an IC50 of 555 nM. In the case of `COc1ccc(-c2[nH]c3ccc(C4CCN(CC(=O)NCCCn5ccnc5)CC4)cc3c2CC(F)(F)F)cc1OC` [Example 383, N-(3-(1H-imidazol-1-yl)propyl)-2-(4-(2-(3,4-dimethoxyphenyl)-3-(2,2,2-trifluoroethyl)-1H-indol-5-yl)piperidin-1-yl)acetamide], the half-inhibitory concentration (IC50) turned out to be 660 nM.

Regarding `COc1ccc(-c2[nH]c3ccc(C4CCN(CC(=O)NCCc5ccc(S(N)(=O)=O)cc5)CC4)cc3c2CC(F)(F)F)cc1OC` [Example 384, 2-(4-(2-(3,4-dimethoxyphenyl)-3-(2,2,2-trifluoroethyl)-1H-indol-5-yl)piperidin-1-yl)-N-(4-sulfamoylphenethyl)acetamide], it took 2310 nM to reach half-maximal inhibition (IC50). The compound `COc1ccc(-c2[nH]c3ccc(C4CCN(CC(=O)NCC(N)=O)CC4)cc3c2CC(F)(F)F)cc1OC` [Example 385, N-(2-amino-2-oxoethyl)-2-(4-(2-(3,4-dimethoxyphenyl)-3-(2,2,2-trifluoroethyl)-1H-indol-5-yl)piperidin-1-yl)acetamide] came in with an IC50 of 4250 nM. The result for `COc1ccc(-c2[nH]c3ccc(C4CCN(CC(=O)NCCS(=O)(=O)O)CC4)cc3c2CC(F)(F)F)cc1OC` [Example 386, 2-(2-(4-(2-(3,4-dimethoxyphenyl)-3-(2,2,2-trifluoroethyl)-1H-indol-5-yl)piperidin-1-yl)acetamido)ethane-1-sulfonic acid] reads at least 50000 nM. Then `COc1ccc(-c2[nH]c3ccc(C4CCN(CC(=O)Nc5cc(C(C)(C)C)[nH]n5)CC4)cc3c2CC(F)(F)F)cc1OC` [Example 387, N-(5-(tert-butyl)-1H-pyrazol-3-yl)-2-(4-(2-(3,4-dimethoxyphenyl)-3-(2,2,2-trifluoroethyl)-1H-indol-5-yl)piperidin-1-yl)acetamide], with 8430 nM. Then `COc1ccc(-c2[nH]c3ccc(C4CCN(CC(=O)NCCCCN5CCCC5)CC4)cc3c2CC(F)(F)F)cc1OC` [Example 388, 2-(4-(2-(3,4-dimethoxyphenyl)-3-(2,2,2-trifluoroethyl)-1H-indol-5-yl)piperidin-1-yl)-N-(4-(pyrrolidin-1-yl)butyl)acetamide], with 288 nM. Consider `CCN(CC)C(=O)C1CCCN(CC(=O)N2CCC(c3ccc4[nH]c(-c5ccc(OC)c(OC)c5)c(C5CCOCC5)c4c3)CC2)C1` (centres unmarked) [Example 391, 1-(2-(4-(2-(3,4-dimethoxyphenyl)-3-(tetrahydro-2H-pyran-4-yl)-1H-indol-5-yl)piperidin-1-yl)-2-oxoethyl)-N,N-diethylpiperidine-3-carboxamide], for which it took 5400 nM to reach half-maximal inhibition (IC50). In turn, `CCN(CC)C(=O)C1CCCN(CC(=O)N2CCC(c3ccc4[nH]c(-c5ccc(OC)c(OC)c5)c(C5CCOCC5)c4c3)CC2)C1` (centres unmarked) [Example 392, 1-(2-(4-(2-(3,4-dimethoxyphenyl)-3-(tetrahydro-2H-pyran-4-yl)-1H-indol-5-yl)piperidin-1-yl)-2-oxoethyl)-N,N-diethylpiperidine-3-carboxamide] came in with an IC50 of 1800 nM.
